From patent US4714702A, “Quinazolinone derivative” (Tanabe Seiyaku Co., Ltd., priority 1983, dated 1987) come the findings set out here.

Type in all cases: in vivo, male mice (ddY-strain)
The subject of data set [1] is mice. The experiment in a line: Acute toxicity (oral, 72 hours). Conditions: for Safety margin (LD50 /ED50): potency ratio of the acute toxicity to the muscle relaxing activity, oral, mice. As to the method: (§1) A test compound dissolved or suspended in an aqueous 0.5% carboxymethylcellulose sodium salt solution was administered orally to a group of six male mice (ddY-strain, body weight: 18-20 g). The 50% lethal dose (LD50) of the test compound was calculated according to the probit method from the number of mice which died within a period of 72 hours after administration.

Data set [2] relates to mice. The data set can be described thus: Muscle relaxing activity (the rotating rod method). As to the method:
A test compound dissolved or suspended in an aqueous 0.5% carboxymethylcellulose sodium salt solution was administered orally to a group of three male mice (ddY-strain, body weight: 18-20 g). After administration of the test compound, the mice were placed on a rotating rod (3.5 cm in diameter, 7.5 r.p.m.) at intervals, and the number of mice which fell out of the rod at least twice within one minute was counted. The 50% effective dose (ED50) of the test compound was calculated therefrom according to the probit method.

The nature of data set [3]: Acute toxicity (oral, 72 hours). Conditions: mouse, in vivo; oral, mice, deaths within 72 hours, probit method. The protocol:
as §1

`Cc1ccccc1OCC(O)CO` (stereo not drawn) [Mephenesin, 3-(o-tolyloxy)-1,2-propanediol, reference compound]: the “Safety margin (LD50 /ED50)” value in data set [1] is given as 4.06.
What is called ED50 is the dose that gives a 50% effect, or the effect in half of the subjects. A lower ED50 goes with greater potency. As usually defined, the LD50 is the dose at which mortality reaches 50%. A higher LD50 goes with lower toxicity. Turning to `Cc1cc(Cl)ccc1-n1c(CF)nc2ccc(N)cc2c1=O` [Test compound 1, 2-fluoromethyl-3-(2-methyl-4-chlorophenyl)-6-amino-4(3H)-quinazolinone], the ED50 in data set [2] (Mus musculus, oral, mice, rotating rod, probit method) was 13.6 mg/kg. Also, the “muscle relaxing activity, times stronger than that of Mephenesin” value in data set [2] (rotating rod method (mice), relative to Mephenesin) is recorded as “about 36.6 times”. In data set [3], the LD50 at 72 h came to 702 mg/kg. For the same molecule, in data set [1] (acute toxicity to muscle relaxing activity ratio, relative to Mephenesin), the “safety margin, times as high as that of Mephenesin” value is given as “about 12.7 times”. In data set [1], the “Safety margin (LD50 /ED50)” value worked out at 51.6.
